Assay results published in PubChem BioAssay (NCI).
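These data come from cells grown in 96-well plates and exposed to compound for 48 hours at five concentrations. TGI: concentration producing complete growth inhibition.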

Experiments:
Assay in all cases: NCI tumour cell line growth inhibition, 48 h
MOLT-4 leukemia = test system: MOLT-4 leukemia
SNB-78 CNS = test system: SNB-78 CNS
CCRF-CEM leukemia = test system: CCRF-CEM leukemia
NCI-H23 lung = test system: NCI-H23 lung
SK-MEL-28 melanoma = test system: SK-MEL-28 melanoma
HCT-116 colon = test system: HCT-116 colon
SF-539 CNS = test system: SF-539 CNS
RXF-631 renal = test system: RXF-631 renal
HT29 colon = test system: HT29 colon
LXFL 529 NSCLC = test system: LXFL 529 NSCLC
HCC-2998 colon = test system: HCC-2998 colon
UO-31 renal = test system: UO-31 renal
ACHN renal = test system: ACHN renal
M14 melanoma = test system: M14 melanoma
DMS 273 small cell lung = test system: DMS 273 small cell lung
SN12C renal = test system: SN12C renal
DLD-1 colon = test system: DLD-1 colon
SNB-75 CNS = test system: SNB-75 CNS
SK-MEL-5 melanoma = test system: SK-MEL-5 melanoma
SK-OV-3 ovarian = test system: SK-OV-3 ovarian
COLO 205 colon = test system: COLO 205 colon
KM12 colon = test system: KM12 colon
HOP-92 NSCLC = test system: HOP-92 NSCLC
HL-60(TB) leukemia = test system: HL-60(TB) leukemia
IGROV1 ovarian = test system: IGROV1 ovarian
786-0 renal = test system: 786-0 renal
OVCAR-8 ovarian = test system: OVCAR-8 ovarian
SF-295 CNS = test system: SF-295 CNS
SW-620 colon = test system: SW-620 colon
DMS 114 small cell lung = test system: DMS 114 small cell lung
OVCAR-3 ovarian = test system: OVCAR-3 ovarian
M19-MEL melanoma = test system: M19-MEL melanoma
MALME-3M melanoma = test system: MALME-3M melanoma
NCI-H226 lung = test system: NCI-H226 lung
RPMI-8226 leukemia = test system: RPMI-8226 leukemia
HCT-15 colon = test system: HCT-15 colon
A549 NSCLC = test system: A549 NSCLC
CAKI-1 renal = test system: CAKI-1 renal
U251 CNS = test system: U251 CNS
TK-10 renal = test system: TK-10 renal
UACC-62 melanoma = test system: UACC-62 melanoma
LOX IMVI melanoma = test system: LOX IMVI melanoma
NCI-H460 lung = test system: NCI-H460 lung
RXF 393 renal = test system: RXF 393 renal
K-562 leukemia = test system: K-562 leukemia
EKVX NSCLC = test system: EKVX NSCLC
HOP-18 NSCLC = test system: HOP-18 NSCLC
UACC-257 melanoma = test system: UACC-257 melanoma

O=c1cccc(-c2cccc(=O)[nH]2)[nH]1
TGI (MOLT-4 leukemia): > 100 µM | TGI (SNB-78 CNS): > 100 µM | TGI (CCRF-CEM leukemia): > 100 µM | TGI (NCI-H23 lung): > 100 µM | TGI (SK-MEL-28 melanoma): > 100 µM | TGI (HCT-116 colon): > 100 µM | TGI (SF-539 CNS): > 100 µM | TGI (RXF-631 renal): > 100 µM | TGI (HT29 colon): > 100 µM | TGI (LXFL 529 NSCLC): > 100 µM | TGI (HCC-2998 colon): > 100 µM | TGI (UO-31 renal): > 100 µM | TGI (ACHN renal): > 100 µM | TGI (M14 melanoma): > 100 µM | TGI (DMS 273 small cell lung): > 100 µM | TGI (SN12C renal): > 100 µM | TGI (DLD-1 colon): > 100 µM | TGI (SNB-75 CNS): > 100 µM | TGI (SK-MEL-5 melanoma): > 100 µM | TGI (SK-OV-3 ovarian): > 100 µM | TGI (COLO 205 colon): > 100 µM | TGI (KM12 colon): > 100 µM | TGI (HOP-92 NSCLC): 96.5 µM | TGI (HL-60(TB) leukemia): > 100 µM | TGI (IGROV1 ovarian): > 100 µM | TGI (786-0 renal): > 100 µM | TGI (OVCAR-8 ovarian): > 100 µM | TGI (SF-295 CNS): > 100 µM | TGI (SW-620 colon): > 100 µM | TGI (DMS 114 small cell lung): > 100 µM | TGI (OVCAR-3 ovarian): > 100 µM | TGI (M19-MEL melanoma): > 100 µM | TGI (MALME-3M melanoma): > 100 µM | TGI (NCI-H226 lung): > 100 µM | TGI (RPMI-8226 leukemia): > 100 µM | TGI (HCT-15 colon): > 100 µM | TGI (A549 NSCLC): > 100 µM | TGI (CAKI-1 renal): > 100 µM | TGI (U251 CNS): > 100 µM | TGI (TK-10 renal): > 100 µM | TGI (UACC-62 melanoma): > 100 µM | TGI (LOX IMVI melanoma): > 100 µM | TGI (NCI-H460 lung): > 100 µM | TGI (RXF 393 renal): > 100 µM | TGI (K-562 leukemia): > 100 µM | TGI (EKVX NSCLC): > 100 µM | TGI (HOP-18 NSCLC): > 100 µM | TGI (UACC-257 melanoma): > 100 µM
